The results in this text go back to ChEMBL document CHEMBL2040547, “Synthesis of natural flutimide and analogous fully substituted pyrazine-2,6-diones, endonuclease inhibitors of influenza virus” (J Org Chem, 2001).

The structures appear in SMILES notation.

As a reminder, the IC50 is the concentration that gives 50% inhibition. High values mean weaker potency in that assay, low ones greater potency in that assay.

This test concerns the target Polymerase acidic protein (Influenza A virus (A/Puerto Rico/8/1934(H1N1)), UniProt P03433). Nature of the test: Inhibition of cap 1 ALMV primed Influenza transcriptase.

Turning to `COCON1C(=O)C(Cc2ccccc2)=N/C(=C\c2ccc(OC)cc2)C1=O`, the concentration for half-maximal inhibition (IC50) was more than 200 µM.

Molecule `COCON1C(=O)/C(=C\C(C)C)N(Cc2ccccc2)[C@@H](CC(C)C)C1=O` had an IC50 of more than 200 µM.

Turning to `O=C1C(Cc2ccccc2)NC(Cc2ccc(F)cc2)C(=O)N1O` (stereo not drawn), the IC50 came to 85 µM.

`COCON1C(=O)C(CC(C)C)=N/C(=C\C(C)C)C1=O` showed an IC50 of more than 200 µM.

As to `CC(C)/C=C1\N=C(CC(C)C)C(=O)N(O)C1=O`, it took 5.1 µM to reach half-maximal inhibition (IC50). This lies in the single-digit micromolar range.

As to `COCON1C(=O)/C(=C\C(C)C)N(Cc2ccccc2)[C@@H](Cc2ccccc2)C1=O`, the IC50 was more than 200 µM.

In the case of `COCON1C(=O)C(CC(C)C)=N/C(=C\c2ccccc2F)C1=O`, the IC50 was more than 200 µM.

`COCON1C(=O)C(Cc2ccccc2)=N/C(=C\C(C)C)C1=O` returned an IC50 of more than 200 µM.

`COCON1C(=O)C(CC(C)C)=N/C(=C\c2ccc(F)cc2)C1=O` registered an IC50 of more than 200 µM.

Consider `COCON1C(=O)C(CC(C)C)=N/C(=C\c2ccc(OC)cc2)C1=O`, for which the IC50 is more than 200 µM.

With `COCON1C(=O)[C@H]([C@@H](O)C(C)C)N(Cc2ccccc2)[C@@H](Cc2ccccc2)C1=O`, the IC50 was more than 200 µM.

Consider `COCON1C(=O)C(CC(C)C)=N/C(=C\c2ccccc2)C1=O`, for which the IC50 was more than 200 µM.

Regarding `COCON1C(=O)/C(=C/c2ccccc2F)N(Cc2ccccc2)[C@@H](CC(C)C)C1=O`, the IC50 is more than 200 µM.

Molecule `COCON1C(=O)C(Cc2ccccc2)=N/C(=C\c2ccc(F)cc2)C1=O` showed an IC50 of more than 200 µM.

As for `COCON1C(=O)C(CC(C)C)=N/C(=C\c2cccc(F)c2)C1=O`, the IC50 is more than 200 µM.

`COCON1C(=O)[C@H]([C@H](O)C(C)C)N(Cc2ccccc2)[C@@H](Cc2ccccc2)C1=O` displayed an IC50 of more than 200 µM.

Molecule `COCON1C(=O)[C@H]([C@H](O)C(C)C)N(Cc2ccccc2)[C@@H](CC(C)C)C1=O` registered an IC50 of more than 200 µM.

`CC(C)CC1=N/C(=C\c2ccc(F)cc2)C(=O)NC1=O`: the IC50 was more than 200 µM.
